By EC50 is commonly meant the concentration giving half of the maximal effect. Broadly, the CC50 is the concentration giving 50% cytotoxicity. High values mean better tolerance by the cells, low ones harm at low concentration.

From patent US8232278B2 (Gilead Sciences, Inc., priority 2005, dated 2012) come the findings set out here.

The subject of one data set is HCV replicon. Description: Anti-HCV assay / replicon assay (EC50, luciferase read-out). Format: cell-based, hepatitis C virus (HCV). As to conditions: for CC50/EC50: CC50/EC50 ratio (selectivity index). The procedure: (§1) The anti-HCV activity of the pyrido[3,2-d]pyrimidine derivatives of this invention was tested in a human hepatoma Huh-7 cell line harbouring a HCV replicon. The assay comprised the following steps:
(§2) Step 1: Compound Preparation and Serial Dilution
(§3) • 1. for water soluble pyrido[3,2-d]pyrimidine derivatives, a volume of 500 μL of solution in cell media (DMEM, 10% FBS, P/S, L-Glutamine) was prepared with a concentration being twice the concentration of the starting final serial dilution concentration. […] The rest of the plate, columns 2-12, was filled with 100 μL of cell media. The plate was then placed on a Precision 2000 Workstation to start the serial dilution. Compounds were diluted three times each step from column 1 to column 10. Column 11 was used as a blank control (no compound added). • 2. for pyrido[3,2-d]pyrimidine derivatives requiring DMSO to dissolve, serial dilution is performed in 50% DMSO in a 384-well plate. A solution containing a compound at 100-fold concentration of the starting final serial dilution concentration was prepared in 50% DMSO and added to the pre-specified wells in column 1 of a polypropylene 384-well plate. The plate was then placed on a Precision 2000 Workstation to start the serial dilution. After the serial dilution, a volume of 2 μL of the solution was transferred from the 384-well plate to a 96-well cell culture plate containing 100 μL of cell media on a Biomek FX Workstation. The DMSO concentration in the final assay condition was 0.5% after cells are added to the plate and the total volume in each well is brought to 200 μL. Step 2: to each well of the serial dilution plate prepared above, 100 μL of cell media containing 6000 suspended Huh-7 HCV replicon cells was added with a Multidrop workstation. The plates were incubated for 3 days at 37° C. with 5% CO2. Step 3: Detection: • a) for the EC50 assay, the media in a 96-well cell culture plate was aspirated with a Biotek EL405 plate-washer. A volume of 200 μL of a solution containing a 1:1 mixture of cell-lysis buffer (Promega, Luciferase Cell Culture Lysis 5× Reagent, cat. #E1531) and luciferase substrate solution (Promega, Luciferase Assay, cat. #E4550) was added to each well of the plate with Multidrop.
(§4) Results in table 7 are expressed by the following data: • the 50% effective concentration (EC50), i.e. the concentration that protects 50% of the cell monolayer from virus-induced cythopathic effect, and • the 50% cytostatic concentration (CC50), i.e. the concentration that results in 50% inhibition of cell growth. Table 7 further indicates the nature of substituents being present in positions 2, 4 and 6 of the pyrido[3,2-d]pyrimidine derivatives of the invention.
For orientation: Replicon systems follow genome replication, usually without infectious particles.

Data set [1] in a line: CC50 assay in Huh-7 HCV replicon cells (CellTiter-Glo). Format: cell-based, human. As to conditions: human, 50% cytostatic concentration. As to the method: as §1, §2, §3, §4
A further data set has as its system Huh-7 HCV replicon cells. Described as above. Format: cell-based, human. As to conditions: 3 days, 50% cytostatic concentration. The procedure:
as §1, §2, §3, §4

Setting [2] is: Hepatitis C virus, 72 h, human hepatoma Huh-7 cell line harbouring a HCV replicon, 3 days, luciferase luminescence, read-out: EC50.
[3] abbreviates: human hepatoma Huh-7 cell line harbouring a HCV replicon, 3 days, luciferase luminescence, read-out: EC50.

Read-outs that look alike come from different tables or passages of the source.

As to `CCCCCOc1nc(N)nc2ccc(-c3cccc(F)c3)nc12` [Example 298, 2-amino-4-n-pentyloxy-6-(m-fluorophenyl)-pyrido[3,2-d]pyrimidine], in the data set on HCV replicon, the CC50/EC50 is given as 77. In addition, the concentration for a half-maximal effect (EC50) with HCV replicon (setting [2]) was determined as 0.365 µM. For the same molecule, half-maximal cytotoxicity in data set [1] (CC50 at 3 days) was put at 28 µM.
The matching figures for `COc1ccc(-c2ccc3nc(N)nc(NCCC(=O)N4CCN(C(C)=O)CC4)c3n2)cc1OC` [Example 262, 2-amino-4-[3-(4-acetylpiperazin-1-yl)-propan-3-one-1-yl-amino]-6-(3,4-dimethoxyphenyl)-pyrido[3,2-d]pyrimidine]: 261, 0.096 µM and 25.1 µM.
With `CC(C)C(=O)Nc1ccc(-c2ccc3nc(N)nc(N4CCOCC4)c3n2)cc1` [Example 501, N-[4-(2-amino-4-morpholin-4-yl-pyrido[3,2-d]pyrimidin-6-yl)-phenyl]-isobutyramide], in the data set with HCV replicon, the CC50/EC50 was determined as 149. The EC50 with HCV replicon (setting [2]) is 0.049 µM. This molecule also yielded a CC50 at 3 days in data set [1] of 7.3 µM.
In the case of `CCCOc1nc(N)nc2ccc(-c3ccc(F)cc3)nc12` [Example 283, 2-amino-4-n-propoxy-6-(p-fluorophenyl)-pyrido[3,2-d]pyrimidine], in the data set on HCV replicon, the CC50/EC50 is given as 221. Moreover, the EC50 with HCV replicon (setting [2]) was determined as 0.095 µM. The cytotoxic concentration (CC50) at 3 days in data set [1] came to 21 µM.
Consider `Nc1nc(OCC2CC2)c2nc(-c3ccc(F)cc3)ccc2n1` [Example 326, 2-amino-4-(cyclopropylmethyloxy)-6-(4-fluorophenyl)pyrido[3,2-d]pyrimidine], for which the CC50/EC50 in the data set on HCV replicon amounted to 254. Also, the concentration giving a half-maximal response (EC50) with HCV replicon (setting [2]) was found to be 0.099 µM. In data set [1], this molecule showed a CC50 at 3 days of 25.1 µM.
Take `Cc1cccc(OCC(=O)N2CCN(c3nc(N)nc4ccc(-c5ccc(F)cc5)nc34)CC2)c1` [Example 370, 2-amino-4-[4-(3-methylphenoxy-acetyl)piperazin-1-yl]-6-(4-fluorophenyl)-pyrido[3,2-d]pyrimidine]: the CC50/EC50 in the data set with HCV replicon is listed as 65. Also, the EC50 in the data set with HCV replicon (setting [2]) is 0.052 µM. In addition, the CC50 at 3 days in data set [1] turned out to be 3.4 µM.
The matching figures for `Nc1nc(N2CCN(C(=O)COc3ccc(Cl)cc3)CC2)c2nc(-c3ccc4c(c3)OCO4)ccc2n1` [Example 187, 2-amino-4-[N-(4-chlorophenoxy-acetyl)-piperazin-1-yl]-6-(3,4-methylenedioxyphenyl)-pyrido[3,2-d]pyrimidine]: 64, 0.019 µM and 1.2 µM.
Take `COc1ccc(-c2ccc3nc(N)nc(N4CCN(CC(=O)N5CCOCC5)CC4)c3n2)cc1OC` [Example 265, 2-amino-4-[N-(piperazino)-acetyl-morpholino]-6-(3,4-dimethoxyphenyl)-pyrido[3,2-d]pyrimidine]: the CC50/EC50 in the data set with HCV replicon is recorded as 84. In addition, in the data set on HCV replicon (setting [2]), the EC50 turned out to be 0.031 µM. For the same molecule, the midpoint of cytotoxicity in data set [1], the CC50 at 3 days, lay at 2.6 µM.
For the molecule `COCCOc1nc(N)nc2ccc(-c3ccc(OC)c(OC)c3)nc12` [Example 471, 6-(3,4-dimethoxy-phenyl)-4-(2-methoxy-ethoxy)-pyrido[3,2-d]pyrimidin-2-ylamine], in the data set on HCV replicon, the CC50/EC50 is reported as 66. Further, the EC50 with HCV replicon (Hepatitis C virus, Huh-7, 72 h) worked out at 0.38 µM. In data set [1], this molecule displayed a cytotoxic concentration (CC50) at 3 days of 25.1 µM.
`COCCNc1nc(NC(C)=O)nc2ccc(-c3ccc(F)cc3)nc12` [Example 398, 2-acetamido-4-(2-methoxy-ethylamino)-6-(4-fluorophenyl)pyrido[3,2-d]pyrimidine]: in the data set with HCV replicon, the CC50/EC50 was determined as 61. In addition, the concentration for a half-maximal effect (EC50) with HCV replicon (setting [2]) stood at 0.41 µM. Further, the cytotoxic concentration (CC50) at 3 days in data set [1] came out at 25.1 µM.
`CCOc1nc(N)nc2ccc(-c3cccc(F)c3)nc12` [Example 280, 2-amino-4-ethoxy-6-(m-fluorophenyl)-pyrido[3,2-d]-pyrimidine]: the CC50/EC50 in the data set on HCV replicon is reported as 125. For the same molecule, the EC50 in the data set on HCV replicon (setting [2]) was determined as 0.3 µM. Besides, the midpoint of cytotoxicity in data set [1], the CC50 at 3 days, lay at 37.5 µM.
`CC(=O)Nc1ccc(-c2ccc3nc(N)nc(OC(C)C)c3n2)cc1` [Example 355, 2-amino-4-(isopropoxy)-6-(p-acetamidophenyl)-pyrido(3,2-d)pyrimidine]: in the data set on HCV replicon, the CC50/EC50 worked out at 120. The 50% effective concentration (EC50) in the data set with HCV replicon (setting [2]) amounted to 0.21 µM. Moreover, the CC50 at 3 days in data set [1] was determined as 25.1 µM.
With `COc1nc(N)nc2ccc(-c3ccc(F)cc3)nc12` [Example 504, 6-(4-fluoro-phenyl)-4-methoxy-pyrido[3,2-d]pyrimidin-2-ylamine], the CC50/EC50 in the data set on HCV replicon amounted to 434. Also, the EC50 in the data set on HCV replicon (setting [2]) was 0.033 µM. Besides, the CC50 at 3 days in data set [1] was found to be 14.3 µM.
For the molecule `COc1ccc(-c2ccc3nc(N)nc(NC4CCN(C(=O)OC(C)(C)C)CC4)c3n2)cc1OC` [Example 246, 2-amino-4-[(1-Boc-piperidin-4-yl)amino]-6-(3,4-dimethoxyphenyl)-pyrido[3,2-d]pyrimidine], in the data set on HCV replicon, the CC50/EC50 is 70. Also, the EC50 in the data set with HCV replicon (setting [2]) was determined as 0.022 µM. Besides, the CC50 at 3 days in data set [1] stood at 1.5 µM.
Turning to `Cc1cccc(NC(=O)N2CCN(c3nc(N)nc4ccc(-c5ccc6c(c5)OCO6)nc34)CC2)c1` [Example 190, 2-amino-4-[N-(3-methyl-phenyl-carbamoyl)-piperazin-1-yl]-6-(3,4-methylenedioxyphenyl)-pyrido[3,2-d]pyrimidine], in the data set with HCV replicon, the CC50/EC50 is reported as 51. Further, the concentration for a half-maximal effect (EC50) with HCV replicon (setting [2]) came out at 0.012 µM. In data set [1], the midpoint of cytotoxicity, the CC50 at 3 days, lay at 0.61 µM.
The matching figures for `CCOc1nc(N)nc2ccc(-c3ccc(OC)nc3)nc12` [Example 546]: 68, 0.37 µM and 25.1 µM.
The matching figures for `CCCCOc1nc(N)nc2ccc(-c3ccc(F)cc3)nc12` [Example 290, 2-amino-4-n-butoxy-6-(p-fluorophenyl)-pyrido[3,2-d]pyrimidine]: 63, 0.34 µM and 21.3 µM.
For the molecule `CC(=O)Nc1ccc(-c2ccc3nc(N)nc(N4CCOCC4)c3n2)cc1` [Example 500, N-[4-(2-amino-4-morpholin-4-yl-pyrido[3,2-d]pyrimidin-6-yl)-phenyl]-acetamide], the CC50/EC50 with HCV replicon came out at 735. Besides, the half-maximal effective concentration (EC50) with HCV replicon (setting [2]) came to 0.049 µM. Also, in data set [1], the CC50 at 3 days came out at 36 µM.
In the case of `Nc1nc(OCCF)c2nc(-c3ccc(F)cc3)ccc2n1` [Example 417, 2-amino-4-(2-fluoro-ethoxy)-6-(4-fluorophenyl)pyrido[3,2-d]pyrimidine], the CC50/EC50 in the data set on HCV replicon stood at 2282. Also, the EC50 in the data set with HCV replicon (setting [2]) stood at 0.011 µM. Moreover, the CC50 at 3 days in data set [1] worked out at 25.1 µM.
In the case of `CCOc1nc(N)nc2ccc(-c3ccc(F)c(Cl)c3)nc12` [Example 462, 6-(3-chloro-4-fluoro-phenyl)-4-ethoxy-pyrido[3,2-d]pyrimidin-2-ylamine], the CC50/EC50 in the data set on HCV replicon is given as 117. In addition, the EC50 with HCV replicon (Hepatitis C virus, Huh-7, 72 h) was 0.428 µM. This molecule had a half-maximal cytotoxic concentration (CC50) in the data set with Huh-7 HCV replicon cells of 50.1 µM.
Regarding “2-amino-4-[(N-3-chloro-phenyl-carbamoyl)-piperazin-1-yl]-6-(3-methyl-4-methoxy-phenyl)pyrido-[3,2-d]pyrimidine [Example 168]”, the CC50/EC50 in the data set on HCV replicon is on record as 97. Moreover, the 50% effective concentration (EC50) at HCV replicon (setting [3]) came out at 0.027 µM. This molecule also registered a CC50 with Huh-7 HCV replicon cells of 2.6 µM.
The matching figures for `COc1ccc(-c2ccc3nc(OCCOc4ccccc4)nc(N4CCN(C(=O)Nc5cccc(C)c5)CC4)c3n2)cc1OC` [Example 19]: 52, 0.48 µM and 25.1 µM.
The matching figures for `COc1cc(-c2ccc3nc(N)nc(N4CCN(C(=O)Nc5ccc(F)cc5)CC4)c3n2)ccc1OC(C)C` [Example 106, 2-amino-4-[(N-4-fluoro-phenyl-carbamoyl)-piperazin-1-yl]-6-(4-isopropoxy-3-methoxy-phenyl)-pyrido[3,2-d]pyrimidine]: 102, 0.035 µM and 3.6 µM.
Take `COc1ccc(-c2ccc3nc(C)nc(N4CCN(C(=O)Nc5cccc(C)c5)CC4)c3n2)cc1OC` [Example 11]: in the data set on HCV replicon, the CC50/EC50 is 98. The concentration giving a half-maximal response (EC50) on HCV replicon (setting [3]) was found to be 0.075 µM. The molecule further displayed a CC50 with Huh-7 HCV replicon cells of 7.3 µM.
For the molecule “4-ethoxy-6-(3-fluoro-4-methoxy-phenyl)-pyrido[3,2-d]pyrimidin-2-ylamine [Example 459]”, in the data set with HCV replicon, the CC50/EC50 was determined as 78. In addition, on HCV replicon (setting [3]), the EC50 is 0.32 µM. In the data set on Huh-7 HCV replicon cells, the midpoint of cytotoxicity, the CC50, lay at 25.1 µM.
